Earlier results as cited in US20070032554A1, “Treatment of stuttering and other communication disorders with norepinephrine reuptake inhibitors” (ELILILLY AND COMPANY a Corporation, priority 2003, published 2007).

Details: for side effects / tolerability: literature reports, treatment of stuttering; for effect on stuttering: literature reports in persons who stutter

SMILES: Cc1cc2c(s1)Nc1ccccc1N=C2N1CCN(C)CC1 [Olanzapine]
- side effects / tolerability: mostly limited to slight weight gain and drowsiness

SMILES: Fc1ccc([C@@H]2CCNC[C@H]2COc2ccc3c(c2)OCO3)cc1 [Paroxetine]
- side effects / tolerability: a number of undesirable side effects

SMILES: CN[C@H]1CC[C@@H](c2ccc(Cl)c(Cl)c2)c2ccccc21 [Sertraline]
- side effects / tolerability: a number of undesirable side effects

SMILES: O=C(CCCN1CCC(O)(c2ccc(Cl)cc2)CC1)c1ccc(F)cc1 [haloperidol]
- effect on stuttering: reduce the symptoms of stuttering
- side effects / tolerability: not well tolerated

SMILES: Cc1nc2n(c(=O)c1CCN1CCC(c3noc4cc(F)ccc34)CC1)CCCC2 [risperidone]
- effect on stuttering: may be effective
- side effects / tolerability: sedation was common
